Like-named read-outs stand apart in the source and are kept apart here. One block for each compound: values may come before it.
Assay: Multi-component pharmacokinetic study of GQD, GQD-GC and single herb extracts in rats (plasma, LC/MS/MS)
Type: in vivo, Sprague-Dawley rats
Experimental: Male Sprague-Dawley rats (220–250 g) were used for PK study, and the details were described in Supplemental Data. All procedures were in accordance with the National Institutes of Health Guide for the Care and Use of Laboratory Animals.
For PK study of GQD and its component herbs, rats were randomly divided into six groups (n = 10 for each group) before oral administration.
All blood samples were immediately centrifuged at 6,000 rpm (4°C) for 20 min to obtain plasma. The plasma samples were stored at −80°C.
A Finnigan TSQ Quantum triple quadrupole mass spectrometer was connected to a Surveyor HPLC via ESI interface (ThermoFisher). High purity nitrogen was used as the sheath and auxiliary gas; Ultra-high purity argon was used as the collision gas (1.5 mTorr). Q1 and Q3 quadrupoles were set at unit resolution. […] The column temperature was 40°C. The mobile phase consisted of acetonitrile containing 2% (v/v) methanol (A) and water containing 0.1% (v/v) formic acid (B). […] An aliquot of 5 μL was injected for analysis. UV spectra were obtained by scanning from 200 to 400 nm. The mass spectrometer was operated in the (+)-ESI mode. The optimized parameters were as follows: sheath gas (N2), 50 arb; auxiliary gas (N2), 5 arb; spray voltage, 4.0 kV; capillary temperature, 330°C; collision energy, see Table S1. Analytes were detected in the selected reaction monitoring (SRM) mode. Data were processed by Xcalibur 2.0.7 software (ThermoFisher).
LC/MS/MS calibration and quantitation data were processed with Xcalibur 2.0.7 software (ThermoFisher). The maximal plasma concentrations (Cmax) and their time of occurrence (Tmax) were obtained directly from the measured data. Other pharmacokinetic parameters were calculated by non-compartment or compartment models using WinNonlin® software (v6.1, Pharsight). Unless otherwise stated, results were expressed as the mean ± SD. Statistical significance in differences of the means was determined by Student's t–test, with a significance level of P < 0.05.
Herbal materials and extracts.
The four component herbs, Puerariae Lobatae Radix (Ge-Gen, GG), Scutellariae Radix (Huang-Qin, HQ), Coptidis Rhizoma (Huang-Lian, HL), and Glycyrrhizae Radix et Rhizoma Praeparata cum Melle (Gan-Cao, GC) were purchased from Tianheng Pharmacy. GQD was prepared by decocting the four component herbs […]
pre-extraction of Ge-Gen using 200 mL of water for 0.5 h. The decoctions were combined, filtered, and concentrated in vacuum at 50 °C. GQD-GC was prepared using the same procedure, except that Gan-Cao was removed from the formula. Final concentration of the GQD-GC extract was equivalent to 1.0 g of the crude drugs per mL. For single herb extracts, the herbs were decocted in 8-fold volume of water for […]
Final concentrations of the extracts were 1.0 g/mL for Ge-Gen, and 0.5 g/mL for Huang-Qin, Huang-Lian and […]
For pharmacokinetic study, Male Sprague-Dawley rats (220-250 g) were obtained from the Laboratory Animal Center of Peking University Health Science Center. The […]
The rats had free access to tap water and soy-free custom diet (Ke’ao Xieli Co.). All procedures were in accordance with the National Institutes of Health Guide for the Care and Use of Laboratory Animals […]
Experimental details for the PK study
1. Preparation of internal standard solution, calibration standard solutions, and quality control solutions […]
internal standard solution. Reference standard compounds were dissolved in the internal standard solution to prepare individual stock solutions (1.0 mg/mL). These […]
each compound. The standard solution was then serially diluted to obtain calibration […]
Quality control stock solutions were prepared at three concentration levels as high QC (HQC), middle QC (MQC), and low QC (LQC), based on linear ranges of the analytes.
2.1. Sample preparation for pharmacokinetic study
The calibration standard and quality control solutions for pharmacokinetic study were […]

[1] = male, Sprague-Dawley, rat, plasma, po, 2.36 g/kg, GC (Gan-Cao) group: rats, oral extract 2.36 g/kg, plasma, read-out: AUClast
[2] = male, Sprague-Dawley, rat, plasma, po, 18.9 g/kg, GQD group: rats, oral GQD extract 18.9 g/kg, plasma, read-out: AUClast
[3] = male, Sprague-Dawley, rat, GC (Gan-Cao) group: rats, oral extract 2.36 g/kg, plasma, read-out: Cmax
[4] = male, Sprague-Dawley, rat, GC (Gan-Cao) group: rats, oral extract 2.36 g/kg, plasma, read-out: T1/2 (converted)
[5] = male, Sprague-Dawley, rat, GC (Gan-Cao) group: rats, oral extract 2.36 g/kg, plasma, read-out: Tmax
[6] = male, Sprague-Dawley, rat, GQD group: rats, oral GQD extract 18.9 g/kg, plasma, read-out: Cmax
[7] = male, Sprague-Dawley, rat, GQD group: rats, oral GQD extract 18.9 g/kg, plasma, read-out: T1/2 (converted)
[8] = male, Sprague-Dawley, rat, GQD group: rats, oral GQD extract 18.9 g/kg, plasma, read-out: Tmax
[9] = male, Sprague-Dawley, rat, in vivo, po, 3.54 g/kg
[10] = male, Sprague-Dawley, rat, in vivo, po, 9.45 g/kg
[11] = male, Sprague-Dawley, rat, in vivo, po, 16.5 g/kg
[12] = male, Sprague-Dawley, rat, in vivo, po, 18.9 g/kg

AUC(0-t) [1]: 19.9 ± 7.99 ng·h/mL
AUC(0-t) [2]: 94.2 ± 32.6 ng·h/mL
Cmax [3]: 1.71 ± 1 ng/mL
half-life [4]: 3.22 ± 0.87 h
Tmax [5]: 0.33 ± 0.13 h
Cmax [6]: 8.62 ± 0.39 ng/mL
half-life [7]: 23.8 ± 16.8 h
Tmax [8]: 2.92 ± 0.08 h
plasma concentrations, effect of GQD compared with Gan-Cao (rats, oral): improved
Compound: COc1ccc(-c2coc3cc(O)ccc3c2=O)cc1 [Compound 32, formononetin]

Cmax [9]: 4.1 ± 0.44 ng/mL
Tmax [9]: 0.58 ± 0.23 h
half-life [9]: 4.87 ± 1.43 h
AUC(0-t) (male, Sprague-Dawley, rat, in vivo, po, 3.54 g/kg, AUClast): 41.3 ± 1.34 ng·h/mL
Compound: O=c1cc(-c2ccccc2)oc2cc(O)cc(O)c12 [Compound 18, chrysin]

Compound: CC1(C)[C@@H](O)CC[C@]2(C)[C@H]3C(=O)C=C4[C@@H]5C[C@@](C)(C(=O)O)CC[C@]5(C)CC[C@@]4(C)[C@]3(C)CC[C@@H]12 [Compound 40, glycyrrhetinic acid]
Cmax (GQD group: rats, oral GQD extract 18.9 g/kg, plasma): 371.14 ± 66.69 ng/mL
AUC(0-t) [1]: 9630 ± 778 ng·h/mL
AUC(0-t) [2]: 8480 ± 1300 ng·h/mL
Cmax [3]: 359 ± 37.8 ng/mL
half-life [4]: 6.87 ± 2.47 h
Tmax [5]: 13.4 ± 0.78 h
half-life [7]: 7.96 ± 2.56 h

AUC(0-t) (male, Sprague-Dawley, rat, plasma, po, 3.54 g/kg, HQ (Huang-Qin) group: rats, oral extract 3.54 g/kg, plasma, read-out: AUClast): 473 ± 34.3 ng·h/mL
AUC(0-t) (male, Sprague-Dawley, rat, plasma, po, 16.5 g/kg, GQD-GC group (GQD without Gan-Cao): rats, oral 16.5 g/kg, plasma, read-out: AUClast): 156 ± 73.4 ng·h/mL
AUC(0-t) [2]: 282 ± 11.3 ng·h/mL
Cmax [6]: 12.9 ± 7.39 ng/mL
half-life [7]: 6.63 ± 2.38 h
Tmax [8]: 7.89 ± 0.99 h
Cmax (male, Sprague-Dawley, rat, GQD-GC group (GQD without Gan-Cao): rats, oral 16.5 g/kg, plasma, read-out: Cmax): 10.2 ± 6.81 ng/mL
half-life (male, Sprague-Dawley, rat, GQD-GC group (GQD without Gan-Cao): rats, oral 16.5 g/kg, plasma, read-out: T1/2 (converted)): 5.64 ± 1.09 h
Tmax (male, Sprague-Dawley, rat, GQD-GC group (GQD without Gan-Cao): rats, oral 16.5 g/kg, plasma, read-out: Tmax): 8 ± 2.12 h
Cmax (male, Sprague-Dawley, rat, HQ (Huang-Qin) group: rats, oral extract 3.54 g/kg, plasma, read-out: Cmax): 38 ± 7.22 ng/mL
half-life (male, Sprague-Dawley, rat, HQ (Huang-Qin) group: rats, oral extract 3.54 g/kg, plasma, read-out: T1/2 (converted)): 5.45 ± 1.22 h
Tmax (male, Sprague-Dawley, rat, HQ (Huang-Qin) group: rats, oral extract 3.54 g/kg, plasma, read-out: Tmax): 8.02 ± 2.48 h
Compound: COc1c(O)cc(O)c2c(=O)cc(-c3ccccc3)oc12 [Compound 8, wogonin]

Compound: O=c1c(-c2ccc(O)cc2)coc2cc(O)ccc12 [Compound 3, daidzein]
Cmax [10]: 188 ± 10.4 ng/mL
half-life [10]: 5.12 ± 0.87 h
AUC(0-t) (male, Sprague-Dawley, rat, in vivo, po, 9.45 g/kg, AUClast): 2640 ± 1150 ng·h/mL
Cmax [11]: 83.5 ± 3.23 ng/mL
half-life [11]: 4.28 ± 1.47 h
AUC(0-t) (male, Sprague-Dawley, rat, in vivo, po, 16.5 g/kg, AUClast): 674 ± 604 ng·h/mL
Cmax [12]: 186 ± 36.2 ng/mL
half-life [12]: 6.23 ± 1.36 h
AUC(0-t) (male, Sprague-Dawley, rat, in vivo, po, 18.9 g/kg, AUClast): 3050 ± 998 ng·h/mL
Tmax (male, Sprague-Dawley, rat, in vivo, GG (Ge-Gen) group: rats, oral extract 9.45 g/kg, plasma, read-out: Tmax): 8 ± 0.14 h
Tmax (male, Sprague-Dawley, rat, in vivo, GQD group: rats, oral GQD extract 18.9 g/kg, plasma, read-out: Tmax): 8 ± 12.8 h
Tmax (male, Sprague-Dawley, rat, in vivo, GQD-GC group (GQD without Gan-Cao): rats, oral 16.5 g/kg, plasma, read-out: Tmax): 0.25 ± 0.32 h

— paper PMC6018403 (Frontiers in Pharmacology, 2018)
